Results reported in patent US6372279B1, “Sweetener composition” (Ajinomoto Co., Inc., priority 1998, dated 2002).
Each block holds one molecule with its values, some of them ahead of it.

Experiments:
[1] = in terms of weight ratio; cited from earlier work
[2] = Dissolution time in 900 ml water (20° C.), 1-L elution tester, Japanese Pharmacopoeia Paddle method, 100 rpm; assay type: physicochemical
Experimental: A predetermined amount of the sample was introduced into 900 ml water (20° C.) in a 1-L elution tester (the Japanese Pharmacopoeia, Paddle method, 100 rpm) and its dissolution time was measured (end point was visually confirmed).
Specifically, 1 g of the sample taken from each mixture consisting of NM C-type crystals (average particle size (diameter) of about 100 μm) and ACE-K raw powder (average particle size of about 20 μm) at a predetermined ratio (ACE-K content (% by weight)) shown in Table 1 below, was weighed and measured for its dissolution time. For comparison, 1.00 g, 0.90 g, 0.80 g, 0.50 g, 0.10 g, and 0.03 g samples were taken from said NM crystals and their dissolution times were determined in the same manner.
The dissolution times of mixtures of NM and ACE-K were measured in the same manner as in Experimental Example 1 except that NM A-type crystals were used in place of NM C-type crystals.
The sample amount for each mixture and the amount of NM alone (NM A-type crystals) were the same as that in Example 1.
The same NM crystals as those in Experimental Example 1 were used as NM, and the same ACE-K powder (average particle size (diameter) of about 20 μm) as that in Experimental Example 1 was used as ACE-K, and the dissolution times thereof were determined in the same manner as in Experimental Example 1.
That is, 0.5 g each of both of them was weighed (1.0 g in total) and introduced simultaneously without being previously mixed, into the elution tester (separate addition). For reference, the dissolution time of 0.5 g NM C-type crystals alone (Experimental Example 1) is also shown together in the table.

[3] = Quality of sweetness compared to sucrose (early taste, later taste, astringent taste); conditions: found by the present inventors
Text: It is reported that the sweetness strength or sweetening potency of the synthetic high-potency sweetener, NM, is about 10,000 times that of sucrose in terms of weight ratio (Japanese Patent Kohyou Publication JP-A-8-503206). […] Further, NM has a strong astringent taste. Accordingly, the balance of the quality of sweetness properties for NM is poor when compared to sucrose. Sucrose is generally regarded as the standard for evaluating the properties or characteristics of the quality of sweetness.

SMILES: CC1=CC(=O)[N-]S(=O)(=O)O1.[K+] [ACE-K, Acesulfame K]
- Sweetness strength or sweetening potency [1]: about 200 times that of sucrose

- Dissolution time ([2]; 0.51 g of NM alone (amount of equal sweetness to 1 g mixture containing 50% ACE-K)): about 60 minutes
SMILES: COC(=O)[C@H](Cc1ccccc1)NC(=O)[C@H](CC(=O)O)NCCC(C)(C)C [NM, N-{N-(3,3-dimethylbutyl)-L-α-aspartyl}-L-phenylalanine 1-methyl ester]
- Early taste ([3]; compared to sucrose): extremely weak
- Later taste ([3]; compared to sucrose): extremely strong
- Astringent taste [3]: strong
- Sweetness strength or sweetening potency [1]: about 10,000 times that of sucrose

- Dissolution time ([2]; NM A-type crystals alone, 0.80 g in 900 ml water, 20° C.): 38 min
SMILES: COC(=O)[C@H](Cc1ccccc1)NC(=O)[C@H](CC(=O)O)NCCC(C)(C)C [NM A-type crystals, N-{N-(3,3-dimethylbutyl)-L-α-aspartyl}-L-phenylalanine 1-methyl ester, reference compound]

- Dissolution time ([2]; NM C-type crystals alone, 0.80 g in 900 ml water, 20° C.): 58 min
SMILES: COC(=O)[C@H](Cc1ccccc1)NC(=O)[C@H](CC(=O)O)NCCC(C)(C)C [NM C-type crystals, N-{N-(3,3-dimethylbutyl)-L-α-aspartyl}-L-phenylalanine 1-methyl ester]
